# From US11235976B2, “Nanocarbon-iron composite system as well as composition, preparation method and use thereof” (Chongqing Lummy Pharmaceutical Co., LTD, priority 2017, dated 2022)
# Key:
# [1] = tested on: SGC-7901 stomach cancer cells; test: Cell experiment, cell survival rate; type: cell-based; details: iron preparation alone 13.65 μg/mL, 48 h
# Description: (§1) Cells growing in a log phase are collected, the concentration of the cell suspension is adjusted, 100 μL of cell suspension is added to each well and the cells are plated (edge wells are filled with sterile PBS) at a density of 1×10^3-10^4 cells/well. The cells are incubated for 24 hours at 37° C. under the condition of 5% CO2, a nanocarbon-iron solution having a concentration gradient (nanocarbon content: 125, 62.5, 15.63 and 3.91 μg/mL; and ferric ion content: 13.65, 6.83, 1.71 and 0.43 μg/mL) is added, and three sub-wells are set. Then the cells are incubated for 48 hours at 37° C. under the condition of 5% CO2. 10 μL of CCK8 solution is added to each well and then the cells are continuously incubated for 2 hours. The absorbance of each well is measured at OD=450 nm with the microplate reader. In addition, a negative control group, nanocarbon control groups having the same concentration and iron preparation control groups having the same concentration are set.
# as §1, with “and 1” for “100”, “of a 6-well plate” for “and the cells are plated (edge wells are filled with sterile PBS)”, “3×10^4” for “1×10^3-10^4”, “1.71,” for “1.71 and”, “The” for “10 μL of CCK8 solution is added to each well and then the”, “trypsinized and counted.” for “continuously incubated for 2 hours. The absorbance of each well is measured at OD=450 nm with the microplate reader.”
# [2] = tested on: murine liver cancer H22 cells; test: Cell experiment, cell survival rate; type: cell-based; details: 48 h
# Description: as §1
# as §1, with “and 1” for “100”, “of a 6-well plate” for “and the cells are plated (edge wells are filled with sterile PBS)”, “3×10^4” for “1×10^3-10^4”, “1.71,” for “1.71 and”, “The” for “10 μL of CCK8 solution is added to each well and then the”, “trypsinized and counted.” for “continuously incubated for 2 hours. The absorbance of each well is measured at OD=450 nm with the microplate reader.”
# [3] = tested on: SMMC7721 liver cancer cells; test: Cell experiment, cell survival rate; type: cell-based; details: SMMC-7721, 48 h
# Description: as §1
# as §1, with “and 1” for “100”, “of a 6-well plate” for “and the cells are plated (edge wells are filled with sterile PBS)”, “3×10^4” for “1×10^3-10^4”, “1.71,” for “1.71 and”, “The” for “10 μL of CCK8 solution is added to each well and then the”, “trypsinized and counted.” for “continuously incubated for 2 hours. The absorbance of each well is measured at OD=450 nm with the microplate reader.”
# [4] = tested on: TPC-1 thyroid cancer cells; test: Cell experiment, cell survival rate; type: cell-based; details: 48 h
# Description: as §1
# as §1, with “and 1” for “100”, “of a 6-well plate” for “and the cells are plated (edge wells are filled with sterile PBS)”, “3×10^4” for “1×10^3-10^4”, “1.71,” for “1.71 and”, “The” for “10 μL of CCK8 solution is added to each well and then the”, “trypsinized and counted.” for “continuously incubated for 2 hours. The absorbance of each well is measured at OD=450 nm with the microplate reader.”
# [5] = tested on: H22 metastatic lymph nodes; test: Lymph node metastasis inhibition experiment; type: in vivo, Kunming mouse; details: popliteal lymph nodes
# Description: (§2) Milky white and thick ascites is extracted from the H22 tumor-bearing mice, the concentration is adjusted to be 3×10^7 cells/mL, 0.05 mL of cell suspension (about 1.5×10^6 cells) is inoculated subcutaneously into the left hind foot pads of each Kunming mouse, and thus a lymph node metastasis mouse model is obtained. The mice are treated when the diameter of the tumor reaches 6-8 mm and there is no ulcer and necrosis. The mice are randomly divided into four groups (10 mice per group): a negative control group (0.9% sodium chloride injection), a nanocarbon control group, an iron preparation control group and a nanocarbon-iron suspension experimental group. 10 days after inoculation, the mice are killed, and popliteal lymph nodes are collected, weighed and fixed for pathological examination.
# [6] = tested on: lymph node metastasis of 9 types of tumor cells; test: Lymph node metastasis inhibition experiment, summary; type: in vivo, mice
# Description: as §2, with “Cells growing in a log phase are collected,” for “Milky white and thick ascites is extracted from the H22 tumor-bearing mice,”, “concentration of the cell suspension” for “concentration”, “to” for “to be”, “the” for “0.05 mL of”, “suspension” for “suspension (about 1.5×10^6 cells)”, “nude mouse at the inoculation volume of 0.05 mL (about 1.5×10^6 cells)” for “Kunming mouse,”
# as §2
# [7] = tested on: subcutaneous transplantation tumors of 9 types of cancer cells; test: Tumor growth inhibition experiments, subcutaneous transplantation tumors; type: in vivo, mice; details: FIGS. 4-39
# Description: Cells growing in a log phase are collected, the concentration of the cell suspension is adjusted to 3×10^7 cells/mL, and the cell suspension is inoculated subcutaneously into the right upper extremities of nude mice at the inoculation dosage of 0.1 mL (about 3×10^6 cells) per mouse. When the average tumor volume of the inoculated mice reaches 100 mm^3, the tumor-bearing mice are randomly divided into the following groups (8 nude mice per group): a negative control group (0.9% sodium chloride injection), a nanocarbon control group, an iron preparation control group, a nanocarbon-iron suspension experimental group, and a cis-platinum control group (intraperitoneal injection at the dosage of 5 mg/kg). The above various drugs are injected into the tumors. The tumor volume changes are recorded, and the formula for calculating the volume is Volume=(length×the square of width)/2.
# Milky white and thick ascites is extracted from the H22 tumor-bearing mice, the concentration of the cell suspension is adjusted to be 3×10^7 cells/mL, 0.1 mL of cell suspension (about 3×10^6 cells) is inoculated subcutaneously into the right upper extremity of each of Kunming mice. When the average tumor volume of the inoculated mice reaches 100 mm^3, the tumor-bearing mice are randomly divided into the following groups (8 mice per group): a negative control group (0.9% sodium chloride injection), a nanocarbon control group, an iron preparation control group, a nanocarbon-iron suspension experimental group, and a cis-platinum control group (intraperitoneal injection at the dosage of 5 mg/kg). The above various drugs are injected into the tumors. The tumor volume changes are recorded, and the formula for calculating the volume is Volume=(length×the square of width)/2.
# [8] = tested on: A549 metastatic lymph nodes; test: Lymph node metastasis inhibition experiment; type: in vivo, nude mouse; details: popliteal lymph nodes
# Description: as §2, with “Cells growing in a log phase are collected,” for “Milky white and thick ascites is extracted from the H22 tumor-bearing mice,”, “concentration of the cell suspension” for “concentration”, “to” for “to be”, “the” for “0.05 mL of”, “suspension” for “suspension (about 1.5×10^6 cells)”, “nude mouse at the inoculation volume of 0.05 mL (about 1.5×10^6 cells)” for “Kunming mouse,”
# [9] = tested on: TPC-1 metastatic lymph nodes; test: Lymph node metastasis inhibition experiment; type: in vivo, nude mouse; details: popliteal lymph nodes
# Description: as §2, with “Cells growing in a log phase are collected,” for “Milky white and thick ascites is extracted from the H22 tumor-bearing mice,”, “concentration of the cell suspension” for “concentration”, “to” for “to be”, “the” for “0.05 mL of”, “suspension” for “suspension (about 1.5×10^6 cells)”, “nude mouse at the inoculation volume of 0.05 mL (about 1.5×10^6 cells)” for “Kunming mouse,”
# [10] = tested on: SKOV3 metastatic lymph nodes; test: Lymph node metastasis inhibition experiment; type: in vivo, nude mouse; details: popliteal lymph nodes
# Description: as §2, with “Cells growing in a log phase are collected,” for “Milky white and thick ascites is extracted from the H22 tumor-bearing mice,”, “concentration of the cell suspension” for “concentration”, “to” for “to be”, “the” for “0.05 mL of”, “suspension” for “suspension (about 1.5×10^6 cells)”, “nude mouse at the inoculation volume of 0.05 mL (about 1.5×10^6 cells)” for “Kunming mouse,”
# [11] = tested on: Hela metastatic lymph nodes; test: Lymph node metastasis inhibition experiment; type: in vivo, nude mouse; details: popliteal lymph nodes
# Description: as §2, with “Cells growing in a log phase are collected,” for “Milky white and thick ascites is extracted from the H22 tumor-bearing mice,”, “concentration of the cell suspension” for “concentration”, “to” for “to be”, “the” for “0.05 mL of”, “suspension” for “suspension (about 1.5×10^6 cells)”, “nude mouse at the inoculation volume of 0.05 mL (about 1.5×10^6 cells)” for “Kunming mouse,”
# [12] = tested on: MDA-MB-231 metastatic lymph nodes; test: Lymph node metastasis inhibition experiment; type: in vivo, nude mouse; details: popliteal lymph nodes
# Description: as §2, with “Cells growing in a log phase are collected,” for “Milky white and thick ascites is extracted from the H22 tumor-bearing mice,”, “concentration of the cell suspension” for “concentration”, “to” for “to be”, “the” for “0.05 mL of”, “suspension” for “suspension (about 1.5×10^6 cells)”, “nude mouse at the inoculation volume of 0.05 mL (about 1.5×10^6 cells)” for “Kunming mouse,”
# [13] = tested on: SGC-7901 metastatic lymph nodes; test: Lymph node metastasis inhibition experiment; type: in vivo, nude mouse; details: popliteal lymph nodes
# Description: as §2, with “Cells growing in a log phase are collected,” for “Milky white and thick ascites is extracted from the H22 tumor-bearing mice,”, “concentration of the cell suspension” for “concentration”, “to” for “to be”, “the” for “0.05 mL of”, “suspension” for “suspension (about 1.5×10^6 cells)”, “nude mouse at the inoculation volume of 0.05 mL (about 1.5×10^6 cells)” for “Kunming mouse,”
# [14] = tested on: SMMC-7721 metastatic lymph nodes; test: Lymph node metastasis inhibition experiment; type: in vivo, nude mouse; details: popliteal lymph nodes
# Description: as §2, with “Cells growing in a log phase are collected,” for “Milky white and thick ascites is extracted from the H22 tumor-bearing mice,”, “concentration of the cell suspension” for “concentration”, “to” for “to be”, “the” for “0.05 mL of”, “suspension” for “suspension (about 1.5×10^6 cells)”, “nude mouse at the inoculation volume of 0.05 mL (about 1.5×10^6 cells)” for “Kunming mouse,”
# [15] = tested on: HCT116 metastatic lymph nodes; test: Lymph node metastasis inhibition experiment; type: in vivo, nude mouse; details: popliteal lymph nodes
# Description: as §2, with “Cells growing in a log phase are collected,” for “Milky white and thick ascites is extracted from the H22 tumor-bearing mice,”, “concentration of the cell suspension” for “concentration”, “to” for “to be”, “the” for “0.05 mL of”, “suspension” for “suspension (about 1.5×10^6 cells)”, “nude mouse at the inoculation volume of 0.05 mL (about 1.5×10^6 cells)” for “Kunming mouse,”
# [16] = iron preparation alone 0.43 μg/mL
# [17] = iron preparation alone 1.71 μg/mL
# [18] = iron preparation alone 6.83 μg/mL
# [19] = iron preparation alone 13.65 μg/mL
substance,measurement,setting,value
ferrous sulfate,Cell Survival Rate,[1],100%
same,Cell Survival Rate,[2]; [16],100%
same,Cell Survival Rate,[2]; [17],95.24%
same,Cell Survival Rate,[2]; [18],97.16%
same,Cell Survival Rate,[2]; [19],100%
same,Cell Survival Rate,[3]; [16],100%
same,Cell Survival Rate,[3]; [17],100%
same,Cell Survival Rate,[3]; [18],100%
same,Cell Survival Rate,[3]; [19],97.46%
same,Cell Survival Rate,[4]; [16],100%
same,Cell Survival Rate,[4]; [17],100%
same,Cell Survival Rate,[4]; [18],98.75%
same,Cell Survival Rate,[4]; [19],93.64%
same,Weight of Lymph Node,[5],44.27 ± 20.69 mg
same,inhibition effect on the metastatic lymph nodes,[6],do not have an inhibition effect
same,inhibition effect on growth of 9 types of tumors,[7],do not have an inhibition effect
same,Weight of Lymph Node,[8],44.97 ± 16.53 mg
same,Weight of Lymph Node,[9],35.71 ± 13.45 mg
same,Weight of Lymph Node,[10],35.62 ± 6.94 mg
same,Weight of Lymph Node,[11],29.48 ± 6.46 mg
same,Weight of Lymph Node,[12],40.18 ± 11.14 mg
same,Weight of Lymph Node,[13],50.12 ± 20.94 mg
same,Weight of Lymph Node,[14],50.19 ± 18.73 mg
same,Weight of Lymph Node,[15],48.12 ± 10.58 mg
